Experimental data: US20070004660A1, “Synergistic Modulation of Flt3 Kinase Using Alkylquinolines and Alkylquinazolines” (priority 2005, published 2007)
Like-named read-outs stand apart in the source and are kept apart here.

Tests used:
FLT3 = FLT3 phosphorylation in MV4-11 tumors from treated mice (immunoblot); assay type: in vivo, human; details: single dose 100 mg/kg po, tumors harvested 2 hours later
Experimental: To establish further that FLT3 inhibitors of Formula I′ reached the expected target in tumor tissue, the level of FLT3 phosphorylation in tumor tissue obtained from vehicle- and compound-treated mice was measured. Results for FLT3 inhibitor Compound B (Compound 73 of Formula I′) and FLT3 inhibitor Compound C (Compound 74 of Formula I′) are shown in FIG. 3 and FIG. 4, respectively. For this pharmacodynamic study, a sub-set of 10 mice from the vehicle-treated control group were randomized into two groups of 5 mice each and then treated with another dose of vehicle or compound (100 mg/kg, po). Tumors were harvested 2 hours later and snap frozen for assessment of FLT3 phosphorylation by immunobloting.
Harvested tumors were processed for immunoblot analysis of FLT3 phosphorylation in the following manner: 100 mg of tumor tissue was dounce homogenized in lysis buffer (50 mM Hepes, 150 mM NaCl, 10% Glycerol, 1% Triton-X-100, 10 mM NaF, 1 mM EDTA, 1.5 mM MgCl2, 10 mM NaPyrophosphate) supplemented with phosphatase (Sigma Cat# P2850) and protease inhibitors (Sigma Cat #P8340). Insoluble debris was removed by centrifugation at 1000×g for 5 minutes at 4° C. Cleared lysates ([…] of total potein at 10 mg/ml in lysis buffer) were incubated with 10 μg of agarose conjugated anti-FLT3 antibody, clone C-20 (Santa Cruz cat # sc-479ac), for 2 hours at 4° C. with gentle agitation. […]

MV4-11 AML cells = assay: Cell proliferation assay, single agents and FTI/FLT3 inhibitor combinations, MV4-11; assay type: cell-based, human; details: Homo sapiens, MV4-11; proliferation; FLT3 inhibitor alone or, in combination lines, in the combination
Experimental: Dose responses for the individual compounds alone were determined for each cell line using a standard 72-hour cell proliferation assay (see FIGS. 6.1-6.8). The standard chemotherapeutic agent Cytarabine was used as a control cytotoxic agent in all experiments. […] The FLT3 inhibitors, Compounds A, B, C, D, E, F G and H individually have good potency (sub-micromolar) for the inhibition of FLT3 driven proliferation (compared to the first line cytotoxic agent Cytarabine and Tipifarnib) in cells that depend on FLT3 for growth. Each of these chemically distinct compounds alone has potential for the treatment of disorders related to FLT3, such as FLT3 positive AML. […] The FLT3 inhibitors tested had no effect on THP-1 proliferation. […] (See FIGS. 10.1-10.8 and Tables 1-3, hereafter.)
To statistically evaluate the synergy of a FLT3 inhibitor and an FTI in FLT3 dependent cell lines, dosing combinations were evaluated by the method of Chou and Talalay. See Chou T C, Talalay P. (1984) “Quantitative analysis of dose-effect relationships: the combined effects of multiple drugs or enzyme inhibitors.” Adv Enzyme Regul. 22:27-55. […] Using this method, multiple FTI and FLT3 combinations were evaluated. […]
Cell proliferation assay for MV4-11, Baf3-ITD, Baf3-FLT3 and THP-1 cells. […] Total cell growth is quantified as the difference in luminescent counts (relative light units, RLU) of cell number at Day 0 compared to total cell number at Day 3 (72 hours of growth and/or compound treatment). One hundred percent inhibition of growth is defined as an RLU equivalent to the Day 0 reading. […]
Combination Index Analysis. To determine growth inhibition synergy of a FTI and FLT3 inhibitor combination based on the method of Chou and Talalay (Chou and Talalay. See Chou T C, Talalay P. (1984) “Quantitative analysis of dose-effect relationships: the combined effects of multiple drugs or enzyme inhibitors.” Adv Enzyme Regul. 22:27-55. ), fixed ratio combination dosing with isobolar statistical analysis was performed. […]

MV-4-11 tumor xenografts = assay: In vivo combination study, FLT3 inhibitor Compound B and Tipifarnib, MV-4-11 xenografts; details: for effect on tumor growth compared to Vehicle-treated group: nine days
Experimental: The effect of combination treatment of the FLT3 Inhibitor FLT3 inhibitors of Formula I′ and Tipifarnib (Zarnestra™) on the growth of MV-4-11 human AML tumor xenografts in nude mice was tested using FLT3 inhibitor Compound B. The in vivo study was designed to extend the in vitro observations to evaluate the potential for a synergistic anti-tumor effect of FLT3 inhibitor Compound B administered orally together with Tipifarnib to nude mice bearing established MV-4-11 tumor xenografts.

MV4-11 tumor xenografts = details: for reduction of final tumor weight compared to vehicle-treated group / tumor regression, decrease versus starting mean tumor volume on Day 1: 11 days; for decrease of mean tumor volume compared to vehicle-treated group: Day 11
Experimental: The oral anti-tumor efficacy of a subset of the compounds of the invention was evaluated in vivo using a nude mouse MV4-11 human tumor xenograft regression model.

CN1CCN(CCCOc2ccc3c(C4CCN(C(=O)Nc5ccc(N6CCOCC6)cc5)CC4)ncnc3c2)CC1 [FLT3 inhibitor Compound B, 4-{7-[3-(4-Methyl-piperazin-1-yl)-propoxy]-quinazolin-4-yl}-piperidine-1-carboxylic acid (4-morpholin-4-yl-phenyl)-amide]
level of FLT3 phosphorylation in MV4-11 tumors versus vehicle (FLT3): biologically significant reduction | IC50 (MV4-11 AML cells): 31.3 nM | effect on tumor growth compared to Vehicle-treated group (MV-4-11 tumor xenografts; 10 mg/kg bid po): marginal significant inhibition of tumor growth | effect on tumor growth compared to Vehicle-treated group (MV-4-11 tumor xenografts; 20 mg/kg bid po): tumor growth stasis | overt toxicity (MV-4-11 tumor xenografts; 9-day treatment, either agent alone or in combination): No overt toxicity | reduction of final tumor weight compared to vehicle-treated group (MV4-11 tumor xenografts; 10 mg/kg b.i.d. po): 48% | decrease of mean tumor volume compared to vehicle-treated group (MV4-11 tumor xenografts; 10 mg/kg b.i.d. po): 44% | reduction of final tumor weight compared to vehicle-treated group (MV4-11 tumor xenografts; 30 mg/kg b.i.d. po): 85% | tumor regression, decrease versus starting mean tumor volume on Day 1 (MV4-11 tumor xenografts; 30 mg/kg b.i.d. po): 42% | decrease of mean tumor volume compared to vehicle-treated group (MV4-11 tumor xenografts; 30 mg/kg b.i.d. po): 84% | reduction of final tumor weight compared to vehicle-treated group (MV4-11 tumor xenografts; 100 mg/kg b.i.d. po): 99% | tumor regression, decrease versus starting mean tumor volume on Day 1 (MV4-11 tumor xenografts; 100 mg/kg b.i.d. po): 77% | decrease of mean tumor volume compared to vehicle-treated group (MV4-11 tumor xenografts; 100 mg/kg b.i.d. po): 94%
